# Assays:
# [1] = test system: BALB/c mice; experiment: Passive cutaneous anaphylaxis (PCA); format: in vivo; set-up: unit not given here; settings: local intradermal injection in the ear
# Description: Finally, to extend these observations to mast cell functions in vivo, the inventors tested the effects of C-13 on passive systemic (PSA) and cutaneous anaphylaxis (PCA) induced in BALB/c mice by administering DNP-specific IgE molecules followed by intravenous stimulation with DNP-KLH hapten. […] The intensity of systemic anaphylaxis was determined by measuring both the drop in body temperature and the increase in vascular permeability following antigen administration.
# (§1) • 1) Chemical products and antibodies. A chemical bank of 3000 molecules (a varied subset) was acquired from ChemBridge, Inc. (San Diego, Calif.). Stocks of solutions of small molecules were prepared at a rate of 10 mM in DMSO (dimethylsulphoxide), except for C-13 (methyl 2-{5-[(3-benzyl-4-oxo-2-thioxo-1,3-thiazolidin-5-ylidene)methyl]-2-furyl}benzoate, ChemBridge ID No. 6197026) prepared in DMF (dimethylformamide). Unless specified otherwise, all the reagents were supplied by Sigma. […] The binding of G4G11 with Syk was assessed by adding the 9E10 monoclonal antibody conjugated with HRP detecting the amino acid sequence EQKLISEEDLN of human c-myc protein located at the C-terminal end of the scFv fragment. To generate Syk mutants, targeted mutagenesis was used on GST:Syk 6-242 protein and the binding of G4G11 with the mutants was assessed in the presence of 5 μM of C-13. • 3) Cells, culture conditions and functional tests. […]
# [2] = test system: Btk; experiment: Phosphorylation and FcεRI-induced kinase activity of Btk in RBL-2H3 cells; format: cell-based, rat
# Description: (§2) To examine the functional similarities with G4G11, the inventors explored the biological effects of C-13 on mast cell activation. […] Similarly to the intrabody G4G11, C-13 inhibited the phosphorylation and FcεRI-induced kinase activity of Btk (FIG. 2A) and the phosphorylation of PLC-γ1 and PLC-γ2, the two PLC-γ isoforms expressed in mast cells (FIGS. 2A, C). PTK Lyn phosphorylates both Syk and Btk giving rise to the complete activation thereof and the subsequent phosphorylation of PLC-γ^18.
# as §1, with “(dimethylformamide).” for “(dimethylformamide). Unless specified otherwise, all the reagents were supplied by Sigma.”
# [3] = test system: PLC-γ1 and PLC-γ2; experiment: Phosphorylation of PLC-γ1 and PLC-γ2 in mast cells; format: cell-based
# Description: as §2
# as §1, with “(dimethylformamide).” for “(dimethylformamide). Unless specified otherwise, all the reagents were supplied by Sigma.”
# [4] = test system: Lyn; experiment: FcεRI-dependent Lyn activation in RBL-2H3 cells; format: cell-based, rat
# Description: as §2
# as §1, with “(dimethylformamide).” for “(dimethylformamide). Unless specified otherwise, all the reagents were supplied by Sigma.”
smiles,measurement,setting,value
"COC(=O)c1ccccc1-c1ccc(/C=C2/SC(=S)N(Cc3ccccc3)C2=O)o1 [Molecule C-13, methyl 2-{5-[(3-benzyl-4-oxo-2-thioxo-1,3-thiazolidin-5-ylidene)methyl]-2-furyl}benzoate]","estimated IC50, inhibitory effect on PCA",[1],~25
same,phosphorylation and FcεRI-induced kinase activity of Btk,[2],inhibited
same,phosphorylation of PLC-γ1 and PLC-γ2,[3],inhibited
same,FcεRI-dependent Lyn activation,[4],did not affect
